Values quoted from earlier work, collected in US20060251720A1, “Localized controlled absorption of statins in the gastrointestinal tract for achieving high blood levels of statins” (priority 2004, published 2006).

Legend:
HMG-CoA reductase = biological target: T1, HMG-CoA reductase (Homo sapiens, UniProt P04035); conditions: relative to the beta-hydroxy acid form taken as the drug
T1 sequence (P04035 1-888): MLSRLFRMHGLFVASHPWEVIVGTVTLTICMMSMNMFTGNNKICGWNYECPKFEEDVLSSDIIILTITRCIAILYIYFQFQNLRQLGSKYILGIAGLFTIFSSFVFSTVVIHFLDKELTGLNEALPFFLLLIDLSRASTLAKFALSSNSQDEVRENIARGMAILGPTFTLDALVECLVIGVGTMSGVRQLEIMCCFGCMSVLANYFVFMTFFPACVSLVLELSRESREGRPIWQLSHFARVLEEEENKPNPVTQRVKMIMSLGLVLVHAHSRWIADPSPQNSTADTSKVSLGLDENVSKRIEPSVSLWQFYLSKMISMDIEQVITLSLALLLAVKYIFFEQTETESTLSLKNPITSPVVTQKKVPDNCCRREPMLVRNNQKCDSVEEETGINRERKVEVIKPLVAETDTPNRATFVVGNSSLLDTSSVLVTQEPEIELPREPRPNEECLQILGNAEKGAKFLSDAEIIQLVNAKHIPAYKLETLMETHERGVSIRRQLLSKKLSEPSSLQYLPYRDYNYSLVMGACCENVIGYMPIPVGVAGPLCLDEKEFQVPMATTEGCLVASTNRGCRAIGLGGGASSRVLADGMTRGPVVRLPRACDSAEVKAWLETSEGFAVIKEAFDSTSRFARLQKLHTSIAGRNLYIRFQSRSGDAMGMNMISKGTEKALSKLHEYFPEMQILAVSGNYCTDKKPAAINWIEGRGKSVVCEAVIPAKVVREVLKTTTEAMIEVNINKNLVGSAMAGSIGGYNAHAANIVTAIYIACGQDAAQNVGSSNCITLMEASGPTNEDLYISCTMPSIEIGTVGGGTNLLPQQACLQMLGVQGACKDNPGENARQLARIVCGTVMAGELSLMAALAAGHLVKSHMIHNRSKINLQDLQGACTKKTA

[1] = test system: plasma proteins, primarily albumin

HMG-CoA reductase activity retained (HMG-CoA reductase) | bound to plasma proteins, primarily to albumin [1] | Structure (SMILES)
approximately 40% | – | CCC(C)(C)C(=O)O[C@H]1C[C@@H](CO)C=C2C=C[C@H](C)[C@H](CC[C@@H]3C[C@@H](O)CC(=O)O3)[C@H]21 [6-beta-hydroxymethyl simvastatin]
– | more than 95% | CCC(C)(C)C(=O)O[C@H]1C[C@@H](C)C=C2C=C[C@H](C)[C@H](CC[C@@H]3C[C@@H](O)CC(=O)O3)[C@H]21 [simvastatin]
~50% | – | CCC(C)(C)C(=O)OC1CC(C)(O)C=C2C=CC(C)C(CCC3CC(O)CC(=O)O3)C21 (stereo not drawn) [6-beta-hydroxy simvastatin]
